The NIST ThermoML archive (doi:10.1021/je400471m)
± gives the expanded uncertainty stated by the source. Each block holds one molecule with its values, some of them ahead of it.

Assays:
[1] = refractive index (Na D-line) (dimensionless); wn = mass fraction of the nth substance listed; details: 338.15 K, 98 kPa, Liquid, Standard Abbe refractometry
[2] = refractive index (Na D-line) (dimensionless); details: 338.15 K; 98 kPa; Liquid; Standard Abbe refractometry

refractive index ([1]; w1 = 0.2189): 1.3687 ± 0.0096
refractive index ([1]; w1 = 0.3592): 1.3945 ± 0.0096
refractive index ([1]; w1 = 0.4567): 1.4159 ± 0.0096
refractive index ([1]; w1 = 0.5286): 1.4339 ± 0.0096
refractive index ([1]; w1 = 0.5759): 1.4393 ± 0.0096
refractive index ([1]; w1 = 0.579): 1.4413 ± 0.0096
refractive index ([1]; w1 = 0.5836): 1.4428 ± 0.0096
SMILES: O=C(CO)[C@@H](O)[C@H](O)[C@H](O)CO [D-fructose] + O

refractive index [2]: 1.323 ± 0.0096
SMILES: O [water]

refractive index ([1]; w1 = 0.2): 1.3363 ± 0.0096
refractive index ([1]; w1 = 0.4): 1.3415 ± 0.0096
refractive index ([1]; w1 = 0.6): 1.3569 ± 0.0096
refractive index ([1]; w1 = 0.9): 1.3587 ± 0.0096
SMILES: CCO [ethanol] + O
